Earlier results as cited in patent US20210077540A1, “BIOACTIVE GREEN-LIPPED MUSSEL EXTRACTS AND USES THEREOF” (SANFORD LIMITED, priority 2018, published 2021).

Experiments:
[1] = oral supplementation, meta-analysis of randomized, double-blind, placebo-controlled trials
[2] = supplementation, women with gestational hypertension incl. pre-eclampsia

Question: Which “reduction of diastolic blood pressure, pooled estimate” value [1] does the source give for N=C(N)NCCC[C@H](N)C(=O)O [L-arginine] here?
Answer: Its value is 2.7 mmHg.

Question: What about the “reduction of systolic blood pressure, pooled estimate” value [1] of the same molecule?
Answer: The value was 5.4 mmHg.

Question: What about the “effect on diastolic blood pressure (in words)” value [2] of the same molecule?
Answer: The value was “reduces diastolic blood pressure”.

Question: What about the “effect on length of pregnancy (in words)” value [2] of the same molecule?
Answer: Its value is “lengthens pregnancy”.
